Earlier results as cited in patent US10799517B2, “Oral composition of celecoxib for treatment of pain” (Dr. Reddy's Laboratories Ltd., priority 2015, dated 2020).

Key:
[1] = upon oral administration
[2] = between 5° C. and 40° C.; pH independent at pH<9

## Cc1ccc(-c2cc(C(F)(F)F)nn2-c2ccc(S(N)(=O)=O)cc2)cc1 [Celecoxib, 4-[5-(4-methylphenyl)-3-(trifluoromethyl)-1H-pyrazol-1-yl] benzenesulfonamide]
[1]
  time for peak plasma concentrations to be achieved: approximately 3.0 hours
[2]
  aqueous solubility: about 5 μg/ml
